{
  "source": "paper PMC6131501",
  "about": "“Urate transporter inhibitor lesinurad is a selective peroxisome proliferator-activated receptor gamma modulator (sPPARγM) in vitro” (Scientific Reports, 2018)",
  "key": {"[1]": {"tested_on": "PPARγ-regulated genes in HepG2 cells", "assay": "PPARγ target gene quantification in HepG2 cells (qPCR)", "type": "cell-based, human", "conditions": "HepG2, 30 μM, 8 h; mean ± SEM, n = 4", "description": "HepG2 cells were incubated with 1 (30 μM) or 0.1% DMSO as untreated control for 8 h, harvested, washed with cold phosphate-buffered saline (PBS) and then directly used for RNA extraction. 2 μg total RNA were extracted from HepG2 cells by the Total RNA Mini Kit (R6834-02, Omega Bio-Tek, Inc., Norcross, GA, USA). RNA was reverse-transcribed into cDNA using the High-Capacity cDNA Reverse Transcription Kit (4368814, Thermo Fischer Scientific, Inc.) according to the manufacturer’s protocol. PPARγ target gene expression was evaluated by quantitative real time PCR analysis with a StepOnePlus™ System (Life Technologies, Carlsbad, CA, USA) using Power SYBR Green (Life Technologies; 12.5 μL per well). Each sample was set up in duplicates and repeated in four independent experiments. The expression was quantified by the comparative ∆∆Ct method and glycerinaldehyde 3-phosphate dehydrogenase (GAPDH) served as reference gene. The following PCR primers were used: Adiponectin: 5′-TGGCTATGCTCACAGTCTCACATC-3′ (fwd) and 5′-CTCTGTGCCTCTGGTTCCACAA-3′ (rev); ANGPTL4: 5′-ATTCTTTCCAGCGGCTTCTG-3′ (fwd) and 5′-GAG GAC TGG AGA CGC GGA G-3′ (rev); CD36: 5′-GGC TGT GAC CGG AAC TGT G-3′ (fwd) and 5′-AGGTCTCCAACTGGCATTAGAA-3′ (rev); GAPDH: 5′-ATATGATTCCACCCATGGCA-3′ (fwd) and 5′-GATGATGACCCTTTTGGCTC-3′ (rev).\nResults (expressed as mean ± SEM % relative mRNA expression to vehicle (0.1% DMSO); n = 4): Adiponectin: 1 (30 μM): 163 ± 41%; ANGPTL4: 1 (30 μM): 298 ± 49%; CD36: 1 (30 μM): 105 ± 16%."}, "[2]": {"tested_on": "urate transporter 1 (URAT1)", "design": "method as in PMID 27716403", "conditions": "cited from earlier work"}},
  "data": [
    {"compound": "O=C(O)CSc1nnc(Br)n1-c1ccc(C2CC2)c2ccccc12", "note": "[lesinurad]", "values": [
      {"measurement": "ANGPTL4 relative mRNA expression to vehicle", "setting": "[1]", "result": "298 ± 49", "unit": "%"},
      {"measurement": "Adiponectin relative mRNA expression to vehicle", "setting": "[1]", "result": "163 ± 41", "unit": "%"},
      {"measurement": "CD36 relative mRNA expression to vehicle", "setting": "[1]", "result": "105 ± 16", "unit": "%"},
      {"measurement": "IC50", "setting": "[2]", "result": 3.5, "unit": "µM"}
    ]}
  ]
}
